What all share (format): binding
The target of one assay is T1, KRAS G12D (Homo sapiens, UniProt P01116, G12D).
T1 construct: made in house; host or cells: E. coli, e.g. BL21 (DE3)
Nature of the assay: HTRF assay of K-Ras G12D interaction with SOS1 (PPI-HTRF). Conditions: HTRF, 5 nM KRAS G12D; read-out: PPI-HTRF-5 nM KRAS G12D. An excerpt: (§1) This assay can be also used to assess a selective inhibition or reduction of signaling output of a mutant Ras protein relative to a wildtype, or relative to a different mutant Ras protein. For example, the equilibrium interaction of wildtype Kras or K-Ras mutant (e.g., wildtype or a mutant thereof including those mentioned in Example 4) with SOS1 (e.g., hSOS1) can be assessed as a proxy or an indication for a subject compound's ability to bind and inhibit Ras protein. HTRF assay detects from (i) a fluorescence resonance energy transfer (FRET) donor (e.g., antiGST-Europium) that is bound to GST-tagged K-Ras mutant to (ii) a FRET acceptor (e.g., anti-6His-XL665) bound to a His-tagged hSOS1.
(§2) The assay buffer can contain ˜5 mM HEPES pH 7.4, ˜150 mM NaCl, ˜1 mM DTT, 0.05% BSA and 0.0025% (v/v) Igepal. A Ras working solution is prepared in an assay buffer containing typically a suitable amount of the protein construct (e.g., GST-tagged K-Ras mutant) and the FRET donor (e.g., antiGST-Eu(K) from Cisbio, France). A SOS1 working solution is prepared in an assay buffer containing suitable amount of the protein construct (e.g., His-hSOS1) and the FRET acceptor (e.g., anti-6His-XL665 from Cisbio, France). A suitable amount of the protein construct will depend on the range of activity or range of IC50 values being detected or under investigation. For detecting IC50 within a range of 500 nM, the protein constructs of the same range of molarity can be utilized. […] A fixed volume of DMSO with or without test compound is transferred into a 384-well plate. Ras working solution is added to all wells of the test plate. SOS1 working solution is added to all wells except for those that are subsequently filled the inhibitor control solution. Upon incubation for about 10 minutes or longer, the fluorescence is measured with a M1000Pro plate reader (Tecan) using HTRF detection (excitation 337 nm, emission 1: 620 nm, emission 2: 665 nm). Compounds are tested in duplicates at different concentrations (for example, 10 μM, 2.5 μM, 0.63 μM, 0.16 μM, 0.04 μM, 0.01 μM test compound). The ratiometric data (i.e., emission 2 divided by emission 1) is used to calculate IC50 values against Ras using GraphPad Prism (GraphPad software). Following this general procedure, samples were tested with or without a subject compound disclosed herein including compounds exemplified in Table 1 to assess their abilities to inhibit a mutant K-Ras relative to another mutant K-Ras or wildtype K-Ras. Signaling output measured in terms of IC50 values can be obtained, a ratio of IC50 against one mutant relative to another mutant can be calculated. For instance, a selective reduction of K-Ras G12D signaling output can be evidenced by a ratio greater than one. In particular, a selective reduction of K-Ras G12D signaling relative to K-Ras WT signaling is evidenced as the ratio of IC50 (against K-Ras WT) to IC50 (against K-Ras G12D) is greater than 1.
(In general: In TR-FRET formats the signal depends on donor and acceptor labels being close together.)

In the next assay the target is T2, KRAS WT (Homo sapiens, UniProt P01116).
T2 construct: made in house; host or cells: E. coli, e.g. BL21 (DE3)
Nature of the assay: HTRF assay of wildtype K-Ras interaction with SOS1 (PPI-HTRF). Conditions: HTRF, 5 nM KRAS WT; read-out: PPI-HTRF-5 nM KRAS WT.
Text: as §1, §2

The target of another assay is T3, KRAS G12S (Homo sapiens, UniProt P01116, G12S).
T3 construct: made in house; host or cells: E. coli, e.g. BL21 (DE3)
Nature of the assay: HTRF assay of K-Ras G12S interaction with SOS1 (PPI-HTRF). Conditions: 5 nM KRAS G12S, read-out: PPI-HTRF-5 nM KRAS G12S.
Text: as §1, §2

T1 sequence (P01116 1-188 isoform P01116-2 G12D): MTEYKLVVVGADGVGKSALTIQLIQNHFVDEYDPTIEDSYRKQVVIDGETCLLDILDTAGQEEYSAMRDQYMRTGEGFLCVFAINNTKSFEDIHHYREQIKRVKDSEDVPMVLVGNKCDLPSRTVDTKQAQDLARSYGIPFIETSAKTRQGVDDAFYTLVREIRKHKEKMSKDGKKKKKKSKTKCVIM
T3 sequence (P01116 1-188 isoform P01116-2 G12S): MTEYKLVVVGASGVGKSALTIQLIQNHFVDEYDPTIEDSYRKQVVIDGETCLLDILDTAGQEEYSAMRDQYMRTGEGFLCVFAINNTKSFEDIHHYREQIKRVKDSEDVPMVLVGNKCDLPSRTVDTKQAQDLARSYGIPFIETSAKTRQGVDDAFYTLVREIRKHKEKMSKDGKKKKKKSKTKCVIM
T2 sequence (P01116 1-188 isoform P01116-2): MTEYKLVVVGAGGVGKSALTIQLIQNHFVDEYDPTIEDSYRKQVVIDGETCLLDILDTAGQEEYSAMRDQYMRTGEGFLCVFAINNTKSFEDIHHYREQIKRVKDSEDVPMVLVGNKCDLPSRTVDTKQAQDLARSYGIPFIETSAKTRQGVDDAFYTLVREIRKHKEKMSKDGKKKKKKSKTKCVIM

On to `N#Cc1c(N)sc2c(F)ccc(-c3c(Cl)cc4c(N5CCC6(C5)N(C(=O)C5CC5(F)F)CC6(F)F)nc(OC[C@@]56CCCN5C[C@H](F)C6)nc4c3F)c12` (stereo partly drawn) [Compound 228, 2-amino-4-(6-chloro-4-(1-(2,2-difluorocyclopropane-1-carbonyl)-3,3-difluoro-1,6-diazaspiro[3.4]octan-6-yl)-8-fluoro-2-(((2R,7aS)-2-fluorotetrahydro-1H-pyrrolizin-7a(5H)-yl)methoxy)quinazolin-7-yl)-7-fluorobenzo[b]thiophene-3-carbonitrile], for which the IC50 on KRAS G12D, at KRAS WT and on KRAS G12S was < 5 µM throughout.

Regarding `Cc1nc(C)n(C(=O)N2CC[C@@]23CCN(c2nc(OC[C@@]45CCCN4C[C@H](F)C5)nc4c(F)c(-c5ccc(F)c6sc(N)c(C#N)c56)c(Cl)cc24)C3)n1` [Compound 307, 2-amino-4-(6-chloro-4-((R)-1-(3,5-dimethyl-1H-1,2,4-triazole-1-carbonyl)-1,6-diazaspiro[3.4]octan-6-yl)-8-fluoro-2-(((2R,7aS)-2-fluorotetrahydro-1H-pyrrolizin-7a(5H)-yl)methoxy)quinazolin-7-yl)-7-fluorobenzo[b]thiophene-3-carbonitrile], the IC50 on KRAS G12D, at KRAS WT and on KRAS G12S was < 5 µM throughout.

As for `N#Cc1c(N)sc2c(F)ccc(-c3c(Cl)cc4c(N5CCCC6(CCN6C(=O)n6cncn6)C5)nc(OC[C@@]56CCCN5C[C@H](F)C6)nc4c3F)c12` (stereo partly drawn) [Compound 275, 4-(4-(1-(1H-1,2,4-triazole-1-carbonyl)-1,6-diazaspiro[3.5]nonan-6-yl)-6-chloro-8-fluoro-2-(((2R,7aS)-2-fluorotetrahydro-1H-pyrrolizin-7a(5H)-yl)methoxy)quinazolin-7-yl)-2-amino-7-fluorobenzo[b]thiophene-3-carbonitrile], the IC50 on KRAS G12D, at KRAS WT and at KRAS G12S was < 5 µM in each case.

Take `CN(C)CC1(COc2nc(N3CCC4(CCN4C(=O)n4cncn4)C3)c3cc(Cl)c(-c4ccc(F)c5sc(N)c(C#N)c45)c(F)c3n2)CC1` (stereo not drawn) [Compound 315, 4-(4-(1-(1H-1,2,4-triazole-1-carbonyl)-1,6-diazaspiro[3.4]octan-6-yl)-6-chloro-2-((1-((dimethylamino)methyl)cyclopropyl)methoxy)-8-fluoroquinazolin-7-yl)-2-amino-7-fluorobenzo[b]thiophene-3-carbonitrile]: the IC50 at KRAS G12D, at KRAS WT and on KRAS G12S was < 5 µM in each case.

As to `CN1CCC[C@H]1COc1nc2c(c(N3CCC4(CCN4C(=O)n4cncn4)C3)n1)CCN(c1cccc3cccc(Cl)c13)C2` (stereo partly drawn) [Compound 245, (6-(7-(8-chloronaphthalen-1-yl)-2-(((S)-1-methylpyrrolidin-2-yl)methoxy)-5,6,7,8-tetrahydropyrido[3,4-d]pyrimidin-4-yl)-1,6-diazaspiro[3.4]octan-1-yl)(1H-1,2,4-triazol-1-yl)methanone], the IC50 at KRAS G12D, at KRAS WT and at KRAS G12S was > 5 µM in each case.

As to `N#Cc1c(N)sc2c(F)ccc(-c3c(Cl)cc4c(N5CCC6(CCN6C(=O)n6cncn6)C5)nc(OC[C@@]56CCCN5C[C@H](F)C6)nc4c3F)c12` (stereo partly drawn) [Compound 221, (4R)-4-(4-(1-(1H-1,2,4-triazole-1-carbonyl)-1,6-diazaspiro[3.4]octan-6-yl)-6-chloro-8-fluoro-2-(((2R,7aS)-2-fluorotetrahydro-1H-pyrrolizin-7a(5H)-yl)methoxy)quinazolin-7-yl)-2-amino-7-fluorobenzo[b]thiophene-3-carbonitrile], the IC50 at KRAS G12D, on KRAS WT and at KRAS G12S was < 5 µM each time.

On to `N#Cc1c(N)sc2c(F)ccc(-c3c(Cl)cc4c(N5CCC6(CCN6C(=O)ON6C(=O)CCC6=O)C5)nc(OC[C@@]56CCCN5C[C@H](F)C6)nc4c3F)c12` (stereo partly drawn) [Compound 243, 2,5-dioxopyrrolidin-1-yl 6-(7-(2-amino-3-cyano-7-fluorobenzo[b]thiophen-4-yl)-6-chloro-8-fluoro-2-(((2R,7aS)-2-fluorotetrahydro-1H-pyrrolizin-7a(5H)-yl)methoxy)quinazolin-4-yl)-1,6-diazaspiro[3.4]octane-1-carboxylate], for which the IC50 at KRAS G12D, on KRAS WT and at KRAS G12S was < 5 µM throughout.

In the case of `C#Cc1c(F)ccc2cc(O)cc(-c3ncc4c(N5CCC6(CCN6)C5)nc(OC[C@@]56CCCN5C[C@H](F)C6)nc4c3F)c12` (stereo partly drawn) [Compound 268, 5-ethynyl-6-fluoro-4-(8-fluoro-2-(((2R,7aS)-2-fluorotetrahydro-1H-pyrrolizin-7a(5H)-yl)methoxy)-4-(1,6-diazaspiro[3.4]octan-6-yl)pyrido[4,3-d]pyrimidin-7-yl)naphthalen-2-ol], the IC50 at KRAS G12D, at KRAS WT and on KRAS G12S was < 5 µM in each case.

As for `N#Cc1c(N)sc2c(F)ccc(-c3c(Cl)cc4c(N5CCC6(CCN6C(=O)n6ccnc6C#N)C5)nc(OC[C@@]56CCCN5C[C@H](F)C6)nc4c3F)c12` (stereo partly drawn) [Compound 287, 1-(6-(7-(2-amino-3-cyano-7-fluorobenzo[b]thiophen-4-yl)-6-chloro-8-fluoro-2-(((2R,7aS)-2-fluorotetrahydro-1H-pyrrolizin-7a(5H)-yl)methoxy)quinazolin-4-yl)-1,6-diazaspiro[3.4]octane-1-carbonyl)-1H-imidazole-2-carbonitrile], the IC50 on KRAS G12D, at KRAS WT and on KRAS G12S was < 5 µM each time.

With `CCc1ncn(C(=O)N2CCC23CCN(c2nc(OC[C@@]45CCCN4C[C@H](F)C5)nc4c(F)c(-c5ccc(F)c6sc(N)c(C#N)c56)c(Cl)cc24)C3)n1` (stereo partly drawn) [Compound 314, 2-amino-4-(6-chloro-4-(1-(3-ethyl-1H-1,2,4-triazole-1-carbonyl)-1,6-diazaspiro[3.4]octan-6-yl)-8-fluoro-2-(((2R,7aS)-2-fluorotetrahydro-1H-pyrrolizin-7a(5H)-yl)methoxy)quinazolin-7-yl)-7-fluorobenzo[b]thiophene-3-carbonitrile], the IC50 on KRAS G12D, on KRAS WT and on KRAS G12S was < 5 µM each time.

As for `N#Cc1c(N)sc2c(F)ccc(-c3c(Cl)cc4c(N5CCC6(CCN6C(=O)n6nccc6C#N)C5)nc(OC[C@@]56CCCN5C[C@H](F)C6)nc4c3F)c12` (stereo partly drawn) [Compound 290, 1-(6-(7-(2-amino-3-cyano-7-fluorobenzo[b]thiophen-4-yl)-6-chloro-8-fluoro-2-(((2R,7aS)-2-fluorotetrahydro-1H-pyrrolizin-7a(5H)-yl)methoxy)quinazolin-4-yl)-1,6-diazaspiro[3.4]octane-1-carbonyl)-1H-pyrazole-5-carbonitrile], the IC50 on KRAS G12D, at KRAS WT and at KRAS G12S was < 5 µM throughout.

Regarding `N#Cc1c(N)sc2c(F)ccc(-c3c(Cl)cc4c(N5CCC6(CCN6C(=O)n6ccnn6)C5)nc(OC[C@@]56CCCN5C[C@H](F)C6)nc4c3F)c12` (stereo partly drawn) [Compound 248, 4-(4-(1-(1H-1,2,3-triazole-1-carbonyl)-1,6-diazaspiro[3.4]octan-6-yl)-6-chloro-8-fluoro-2-(((2R,7aS)-2-fluorotetrahydro-1H-pyrrolizin-7a(5H)-yl)methoxy)quinazolin-7-yl)-2-amino-7-fluorobenzo[b]thiophene-3-carbonitrile], the IC50 on KRAS G12D, on KRAS WT and on KRAS G12S was < 5 µM throughout.

Values taken from US20240116951A1, “HETEROCYCLIC COMPOUNDS AND USES THEREOF” (Kumquat Biosciences Inc., priority 2022, published 2024).
